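Exposure lasted 48 hours, with cells grown in 96-well plates and compounds tested at five concentrations. Definition used: TGI = concentration required for complete inhibition of growth.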
Experiments:
Test in all cases: growth of human tumour cells (NCI), 48 h
NCI-H226 lung = test system: NCI-H226 lung
PC-3 prostate = test system: PC-3 prostate
SK-MEL-28 melanoma = test system: SK-MEL-28 melanoma
SNB-19 CNS = test system: SNB-19 CNS
SF-268 CNS = test system: SF-268 CNS
UACC-257 melanoma = test system: UACC-257 melanoma
SNB-75 CNS = test system: SNB-75 CNS
A549 NSCLC = test system: A549 NSCLC
SW-620 colon = test system: SW-620 colon
MDA-MB-435 = test system: MDA-MB-435

Row | Structure (SMILES) | TGI (NCI-H226 lung) | TGI (PC-3 prostate) | TGI (SK-MEL-28 melanoma) | TGI (SNB-19 CNS) | TGI (SF-268 CNS) | TGI (UACC-257 melanoma) | TGI (SNB-75 CNS) | TGI (A549 NSCLC) | TGI (SW-620 colon) | TGI (MDA-MB-435)
1 | CC(C)[Si](Oc1ccc(CC2N(C(=O)c3ccc([N+](=O)[O-])cc3)C(CCc3ccccc3)CC2(C)C=O)cc1)(C(C)C)C(C)C (stereo not given) | 98.2 µM | > 100 µM | > 100 µM | 59.4 µM | 54.8 µM | > 100 µM |  |  |  | 
2 | S=C1NNC2(C(=S)N1)c1ccccc1-c1ccccc12 | > 10 µM |  |  |  | > 10 µM | > 10 µM | > 10 µM | > 10 µM | > 10 µM | 
3 | CC(C)C(CCOS(=O)(=O)O)CCC(C)[C@H]1[C@@H](O)C(O)C2[C@]3(O)C[C@@H](O)C4(O)C[C@@H](O)CC[C@]4(C)C3CC[C@@]21C (stereo not given in full) | > 100 µM |  | > 100 µM | > 100 µM | > 100 µM |  |  | > 100 µM | > 100 µM | 
4 | CCOc1cc2c(cc1O)C(=O)C[C@@H]1[C@@H]2CC[C@]2(C)[C@@H](O)CC[C@@H]12 | 17 µM | > 82.5 µM | > 73.5 µM | > 55.2 µM | > 95.4 µM | > 100 µM |  | > 100 µM | > 100 µM | 0.222 µM
5 | COC(=O)C1Cc2cc3c(cc2C1)CCC3 | > 100 µM | > 100 µM | > 100 µM | > 100 µM | > 100 µM | > 100 µM | > 100 µM | > 100 µM | > 100 µM | > 100 µM
6 | O=C1N[C@H](C(=O)O)[C@@H](c2ccc(OCc3ccccc3)cc2)O1 | 55.7 µM | > 100 µM | > 100 µM | 45 µM | 87.9 µM | > 100 µM | 28 µM | > 100 µM | > 100 µM | > 100 µM
7 | CC(C)C(=O)/C=C/c1c(Cl)cccc1Cl | 8.01 µM | 24.4 µM | 20.5 µM | 22.6 µM | 10.5 µM | 20.5 µM | 8.38 µM | 21.9 µM | 9.13 µM | 14.7 µM
8 | C=CCOCn1cnc2c(=O)[nH]c(N)nc21 | > 100 µM | > 100 µM | > 100 µM | > 100 µM | > 100 µM |  | > 100 µM | > 100 µM | > 100 µM | > 100 µM
9 | CCN(/N=C1\CC2C=CCN(C2)C(=O)Cc2c1[nH]c1ccccc21)S(=O)(=O)c1ccc(C)cc1 (stereo not given) | 38.6 µM |  |  | > 100 µM |  | > 100 µM | > 100 µM | > 100 µM | > 100 µM | 
10 | Cc1ccc(-c2cc(=O)c(=O)[nH][nH]2)cc1 | > 100 µM | > 100 µM | > 100 µM |  | > 100 µM | > 100 µM | > 100 µM | > 100 µM | > 100 µM | > 100 µM
11 | O=C(CCCn1ccnc1[N+](=O)[O-])NCCn1cnc([N+](=O)[O-])n1 | > 100 µM | > 100 µM | > 100 µM |  | > 100 µM | > 100 µM | > 100 µM | > 100 µM | > 100 µM | > 100 µM
12 | CN(C)NC1=NS(=O)(=O)c2cc3c(=O)n(C)[nH]c3cc2S1 | > 10 µM | > 10 µM | > 10 µM | > 10 µM | > 10 µM | > 10 µM | > 10 µM | > 10 µM | > 10 µM | 
13 | OCC1OC(n2cnc3c(Cl)nc(Nc4ccc(Cl)c(Cl)c4)nc32)CC1O (stereo not given) | 20.2 µM | 37.1 µM |  | > 50 µM | 28.6 µM | 20 µM | 42.2 µM | > 50 µM | 27.5 µM | 22.3 µM
14 | Cn1c(=S)[nH]c(N)c(Cc2ccccc2)c1=O | > 100 µM | > 100 µM | > 100 µM | > 100 µM | > 100 µM | > 100 µM | > 100 µM | > 100 µM | > 100 µM | > 100 µM
15 | CN(Cc1cnc2nc(N)nc(N)c2n1)c1ccc(C(=O)NCCCC(=O)O)cc1 | > 100 µM | > 100 µM | > 100 µM | > 100 µM | > 100 µM | > 100 µM | > 100 µM | > 100 µM | > 100 µM | > 100 µM
16 | CC1CC(=O)Nc2ccccc2N1C(=O)C1CC1 (stereo not given) | > 100 µM | > 100 µM | > 100 µM | > 100 µM | > 100 µM | > 100 µM |  | > 100 µM | > 100 µM | > 100 µM
17 | Nc1ccc(C2SCC(=O)N2NS(=O)(=O)c2cccc(C(=O)O)c2)cc1 (stereo not given) | > 100 µM | > 100 µM | > 100 µM | > 100 µM | > 100 µM | > 100 µM | > 100 µM | > 100 µM | > 100 µM | > 100 µM
18 | CN1CCN(c2n[nH]c(=O)c3c2nnn3C2CCCCC2)CC1 | > 100 µM | > 100 µM | > 100 µM | > 100 µM | > 100 µM | > 100 µM | > 100 µM | > 100 µM | > 100 µM | > 100 µM
19 | CCOC(=O)CC1Nc2ccccc2C12CCc1c([nH]c3ccccc13)C2C(=O)OCC (stereo not given) |  | > 100 µM | > 100 µM | > 100 µM | > 100 µM | > 100 µM | 4.72 µM | > 100 µM | > 100 µM | > 100 µM
20 | COc1ccc(/C=C/C(=O)CCN2CCN(CCC(=O)/C=C/c3ccc(OC)cc3)CC2)cc1 | 52.8 µM | 25.5 µM | 28.4 µM | > 100 µM | 41.7 µM | 29.1 µM | 58.6 µM | 49.5 µM | 19.7 µM | 24.6 µM
21 | COc1ccc(CNc2nc3cc(C(F)(F)F)ccc3nc2C(=O)O)cc1 | > 100 µM | > 100 µM | > 100 µM | > 100 µM |  | > 100 µM | > 100 µM | 95.9 µM | > 100 µM | 50.6 µM
22 | Cc1cc(N=Cc2c(CO)cnc(C)c2O)c(N=Cc2c(CO)cnc(C)c2O)cc1C | > 100 µM | > 100 µM | > 100 µM | > 100 µM | > 100 µM | > 100 µM | > 100 µM | > 100 µM | > 100 µM | > 100 µM
23 | O=C(CC(=O)N1N=C(N(c2ccccc2)c2ccccc2)CC1c1ccccc1)Nc1cccc(Cl)c1 (stereo not given) | > 100 µM | > 100 µM | > 100 µM | > 100 µM | > 100 µM | > 100 µM | > 100 µM | > 100 µM | > 100 µM | > 100 µM
